Data taken from the supplement of paper PMC10307832.

Columns and labels:
Experiment in all cases: relative viability (nuclei count vs DMSO), 5 days (fraction); higher = more cells survive
AZD1208 + OSI-027 = compound: N[C@@H]1CCCN(c2c(/C=C3\SC(=O)NC3=O)cccc2-c2ccccc2)C1 [AZD1208] + COc1cccc2cc(-c3nc([C@H]4CC[C@H](C(=O)O)CC4)n4ncnc(N)c34)[nH]c12 [OSI-027] (partner 0.5 µM)
In short: (§1)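 Relative viability divides the nuclei count in treated wells by that in vehicle wells. Lung cancer cell lines were seeded in 1536-well plates, dosed by pin tool the next day, and fixed and stained after 5 days in one step with final 0.05% Triton X-100, 1% formaldehyde and 1 ug/ml Hoechst. Dosing was a single drug or a fixed anchor-drug dose plus five library-drug doses (not always all listed) in √10 steps, and values are medians of duplicate plates imaged at 4×.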

AZD1208 + Olaparib = compound: N[C@@H]1CCCN(c2c(/C=C3\SC(=O)NC3=O)cccc2-c2ccccc2)C1 [AZD1208] + O=C(c1cc(Cc2n[nH]c(=O)c3ccccc23)ccc1F)N1CCN(C(=O)C2CC2)CC1 [Olaparib] (partner 8 µM)
In short: as §1

XMD14-99 + Lapatinib = compound: CN1CCN(CC1)C2=CC(=C(C=C2)NC3=NC(=C(S3)C(=O)C4=C(C=CC=C4Cl)Cl)N)OC [XMD14-99] + CS(=O)(=O)CCNCc1ccc(-c2ccc3ncnc(Nc4ccc(OCc5cccc(F)c5)c(Cl)c4)c3c2)o1 [Lapatinib] (partner 2 µM)
In short: as §1

XMD14-99 + Foretinib = compound: CN1CCN(CC1)C2=CC(=C(C=C2)NC3=NC(=C(S3)C(=O)C4=C(C=CC=C4Cl)Cl)N)OC [XMD14-99] + COc1cc2c(Oc3ccc(NC(=O)C4(C(=O)Nc5ccc(F)cc5)CC4)cc3F)ccnc2cc1OCCCN1CCOCC1 [Foretinib] (partner 0.25 µM)
In short: as §1

Row | Cell Line | relative viability (AZD1208 + OSI-027; first compound 0.08 µM) | relative viability (AZD1208 + OSI-027; first compound 0.253 µM) | relative viability (AZD1208 + OSI-027; first compound 0.8 µM) | relative viability (AZD1208 + OSI-027; first compound 2.53 µM) | relative viability (AZD1208 + OSI-027; first compound 8 µM) | relative viability (AZD1208 + Olaparib; first compound 0.08 µM) | relative viability (AZD1208 + Olaparib; first compound 0.253 µM) | relative viability (AZD1208 + Olaparib; first compound 0.8 µM) | relative viability (AZD1208 + Olaparib; first compound 2.53 µM) | relative viability (AZD1208 + Olaparib; first compound 8 µM) | relative viability (XMD14-99 + Lapatinib; first compound 0.08 µM) | relative viability (XMD14-99 + Lapatinib; first compound 0.8 µM) | relative viability (XMD14-99 + Lapatinib; first compound 2.53 µM) | relative viability (XMD14-99 + Lapatinib; first compound 8 µM) | relative viability (XMD14-99 + Foretinib; first compound 0.08 µM) | relative viability (XMD14-99 + Foretinib; first compound 0.8 µM) | relative viability (XMD14-99 + Foretinib; first compound 2.53 µM) | relative viability (XMD14-99 + Foretinib; first compound 8 µM)
1 | HCC-366 | 0.963 | 0.96 | 0.837 | 0.819 | 0.672 | 0.352 | 0.311 | 0.283 | 0.316 | 0.281 | 1.06 | 1.06 | 1.13 | 0.854 | 0.912 | 0.943 | 0.96 | 0.918
2 | HCC-827 | 0.688 | 0.751 | 0.707 | 0.617 | 0.667 | 0.623 | 0.669 | 0.389 | 0.641 | 0.338 | 0.182 | 0.205 | 0.188 | 0.197 | 1.06 | 0.935 | 0.978 | 0.727
3 | HOP-62 | 0.863 | 0.965 | 0.726 | 0.642 | 0.632 | 0.39 | 0.417 | 0.326 | 0.341 | 0.37 | 1.22 | 1.06 | 0.946 | 0.819 | 1.01 | 1.05 | 1.02 | 1.01
4 | IA-LM | – | – | – | – | – | 0.907 | 0.777 | 0.774 | 0.807 | 0.904 | 0.821 | 0.603 | 0.511 | 0.301 | 1.05 | 0.964 | 0.978 | 0.458
5 | LC-2-ad | 0.788 | 0.776 | 0.624 | 0.707 | 0.651 | 0.315 | 0.781 | 0.736 | 0.663 | 0.728 | 0.955 | 0.926 | 0.908 | 0.764 | 1 | 1.01 | 0.849 | 0.836
6 | LCLC-97TM1 | 0.456 | 0.476 | 0.344 | 0.354 | 0.29 | 0.327 | 0.396 | 0.385 | 0.316 | 0.252 | 1.06 | 0.815 | 0.786 | 0.583 | 0.918 | 0.855 | 0.918 | 0.641
7 | LCLC-103H | 0.485 | 0.371 | 0.378 | 0.382 | 0.376 | 0.774 | 0.798 | 0.811 | 0.81 | 0.786 | – | – | – | – | 0.802 | 0.691 | 0.734 | 0.607
8 | LK-2 | 0.184 | 0.155 | 0.157 | 0.123 | 0.144 | 0.677 | 0.736 | 0.444 | 0.324 | 0.353 | 0.801 | 1.01 | 0.823 | 0.949 | 0.99 | 1.17 | 0.991 | 1.2
9 | LOU-NH91 | 0.737 | 0.577 | 0.631 | 0.694 | 0.619 | 0.905 | 0.943 | 0.876 | 0.907 | 0.883 | 0.706 | 0.841 | 0.76 | 0.64 | 0.919 | 0.962 | 0.916 | 0.802
10 | LU99A | 0.295 | 0.29 | 0.291 | 0.264 | 0.238 | 0.273 | 0.266 | 0.273 | 0.235 | 0.246 | 0.94 | 0.976 | 0.879 | 0.695 | 0.893 | 0.872 | 0.729 | 0.649
11 | LXF-289 | 0.821 | 0.814 | 0.602 | 0.647 | 0.648 | 1.03 | 1.23 | 1.06 | 1.03 | 1.01 | 0.923 | 0.885 | 0.866 | 0.704 | 0.964 | 0.949 | 0.923 | 0.898
12 | NCI-H441 | 0.518 | 0.535 | 0.396 | 0.493 | 0.352 | 0.578 | 0.529 | 0.545 | 0.502 | 0.366 | – | – | – | – | 0.766 | 0.993 | 0.849 | 0.751
13 | NCI-H522 | 0.771 | 0.575 | 0.618 | 0.691 | 0.701 | 0.527 | 0.504 | 0.633 | 0.703 | 0.568 | – | – | – | – | – | – | – | –
14 | NCI-H1299 | – | – | – | – | – | 0.999 | 1.01 | 0.974 | 0.957 | 0.987 | 0.924 | 0.925 | 0.925 | 0.813 | 1.11 | 1.02 | 1.1 | 0.949
15 | NCI-H1563 | 0.721 | 0.708 | 0.704 | 0.695 | 0.596 | – | – | – | – | – | 0.85 | 1.1 | 0.906 | 0.824 | 0.878 | 0.941 | 0.871 | 0.74
16 | NCI-H1623 | 0.445 | 0.38 | 0.406 | 0.366 | 0.431 | – | – | – | – | – | – | – | – | – | 0.852 | 0.86 | 0.88 | 0.68
17 | NCI-H1648 | 0.246 | 0.244 | 0.268 | 0.244 | 0.274 | 1.09 | 1.44 | 0.663 | 0.828 | 0.939 | – | – | – | – | – | – | – | –
18 | NCI-H1703 | – | – | – | – | – | 0.416 | 0.334 | 0.268 | 0.384 | 0.337 | 0.9 | 0.976 | 0.972 | 0.793 | 0.345 | 0.329 | 0.339 | 0.273
19 | NCI-H1792 | 0.679 | 0.778 | 0.614 | 0.607 | 0.61 | 0.414 | 0.39 | – | 0.44 | 0.246 | 0.995 | 0.89 | 0.912 | 0.536 | – | – | – | –
20 | NCI-H2342 | 0.575 | 0.664 | 0.488 | 0.627 | 0.574 | 0.49 | 0.383 | 0.372 | 0.456 | 0.376 | – | – | – | – | 1.15 | 0.943 | 0.973 | 0.784
21 | SW 900 | 0.678 | 0.578 | 0.398 | 0.439 | 0.438 | 0.692 | 0.538 | 0.893 | 0.923 | 0.668 | – | – | – | – | 1.02 | 0.694 | 0.802 | 0.718
